Results: patent publication US20160102067A1, “OXIRAN AMINES” (V-BIOTEK HOLDING APS, priority 2012, published 2016)
In brackets after ≈: the same amount, converted by molar mass.

Experiments:
[1] = tested on: MSSA (meticillin-sensitive staphylococcus aureusis); experiment: MIC determination for MSSA; type: cell-based; details: Staphylococcus aureus, dilution series, read-out: MIC (Minimum Inhibitory Concentration)
Experimental: (§1) 15.3 mg 2-Methyl-3-nonyloxiran-2-amine obtained in example 6 was mixed with 100 μl DMSO (Dimethyl sulfoxid) to obtain a stock solution. The stock solution was used for determining the MIC (Minimum Inhibitory Concentration) for MRSA (meticillin-resistant staphylococcus aureusis) and MSSA (meticillin-sensitive staphylococcus aureusis).

P. falciparum = experiment: [3H]-hypoxanthine incorporation, growth rate of P. falciparum (Example 7); type: cell-based, Plasmodium falciparum; details: [3H]-hypoxanthine incorporation after 48 hrs, 3 fold dilution series, FIG. 15
Experimental: 15.3 mg 2-Methyl-3-nonyloxiran-2-amine obtained in example 6 was mixed with 100 μl DMSO (Dimethyl sulfoxid) to obtain a stock solution. A first solution was prepared by mixing 100 uL of the stock solution with 400 uL of parasite media. Subsequently this solution was diluted in 15 dilution series, each dilution serie being diluted 3 fold. The same protecol as used in example 6 was applied for this experiment.
Specifically, the incorporation of [3H]-hypoxanthine was used as a measure for the life conditions of P. falciparum. Parasites were syncronised to ring stages by […] treatment and then incubated at 0.3% parasitemia at 5% haematocrit in 100 uL of growth medium containing [3H]-hypoxanthine over one cycle of replication, i.e. 48 hrs. Each experiment was performed in triplets.

[2] = tested on: MRSA (meticillin-resistant staphylococcus aureusis); experiment: MIC determination for MRSA; type: cell-based; details: Staphylococcus aureus, dilution series, read-out: MIC (Minimum Inhibitory Concentration)
Experimental: as §1

[3] = tested on: erythrocytic stages of P. falciparum; experiment: [3H]-hypoxanthine incorporation assay with extract, P. falciparum strain K1; type: cell-based, Plasmodium falciparum; details: extract at a dilution of 160 times
Experimental: In vitro activity of extract dilutions were tested against erythrocytic stages of P. falciparum by a modified [3H]-hypoxanthine incorporation assay (Scala, F., Fattorusso, E., Menna, M., Taglialatela-Scafati, O., Tiemey, M., Kaiser, M., Tasdemir, D., 2010. Bromopyrrole alkaloids as lead compounds against protozoan parasites. Marine Drugs 8, 2162-2174.) using the […] strain K1. The standard drug used as a positive control was amodiaquine.
Briefly, parasite cultures incubated in RPMI 1640 medium with 5% Albumax (without hypoxanthine) were exposed to serial extract dilutions in microtiter plates. After 48 h of incubation at 37 ° C. in a reduced oxygen atmosphere, 0.5 μCi 3H-hypoxanthine was added to each well. Cultures were incubated for a further 24 h before they were harvested onto glass-fiber filters and washed with distilled water. The radioactivity was counted using a Betaplate™ liquid scintillation counter (Wallac, Zurich, Switzerland). The results were recorded as counts per minute (CPM) per well at each drug concentration and expressed as percentage of the untreated controls. IC50 values were calculated from graphically plotted dose-response curves. Each IC50 value obtained is the mean of at least two separate experiments performed in duplicate (the variation is maximum 20%).

MIC [1] | MIC [2] | Structure (SMILES) | growth rate of P. Falciparum (P. falciparum) | [3H]-hypoxanthine incorporation value [3]
9.6 mg/mL (≈ 48.2 mM) | 38.3 mg/mL (≈ 192 mM) | CCCCCCCCCC1OC1(C)N (stereo not shown) [2-Methyl-3-nonyloxiran-2-amine] | concentration dependent inhibition | 
 |  | CCN(CC)Cc1cc(Nc2ccnc3cc(Cl)ccc23)ccc1O [amodiaquine] |  | 47.5 CPM
